The text below walks through data of patent US8257965B2, “Arrays of biological membranes and methods and use thereof” (Corning Incorporated, priority 2001, dated 2012).

Some results are limits rather than exact numbers.

The target of experiment [1] is T1, neurotensin receptor subtype 1 (NTR1) (Homo sapiens, UniProt P30989).
T1 construct: purchased Perkin Elmer Life Science (Boston, Mass.)
In words: Competition binding of BT-neurotensin to NTR1 receptor arrays on CMT-GAPS slides. The note with it: BT-NT 2 nM, unlabeled ligand 1 μM.

The target of a further experiment is β1 (Homo sapiens, UniProt P08588). Put plainly: Family-specific adrenergic receptor array, competition with BODIPY-TMR-CGP12177. It is filed as binding. How it is done:
FIGS. 9A, 9B and 9C illustrate GPCR theme arrays used to differentiate the selectivity of compounds of interest to receptors relating to a single subfamily. Multiple arrays of β1, β2 and α2A were fabricated on an APTES-modified gold surface. Within each array there were three columns of five replicates, corresponding to β1, β2 and α2A from the left to right column, respectively. The array incubated with 5 nM BT-CGP only was used as positive control (FIG. 9A). […] Three receptors belonging to the same family, adrenergic receptors, were arrayed within a single grid, and replicates of this grid were arrayed on a single slide. The receptors were β1, β2 and α2A, respectively.

A further experiment concerns the target T2, α2A (Homo sapiens, UniProt P08913).
T2 sequence (P08913 1-465): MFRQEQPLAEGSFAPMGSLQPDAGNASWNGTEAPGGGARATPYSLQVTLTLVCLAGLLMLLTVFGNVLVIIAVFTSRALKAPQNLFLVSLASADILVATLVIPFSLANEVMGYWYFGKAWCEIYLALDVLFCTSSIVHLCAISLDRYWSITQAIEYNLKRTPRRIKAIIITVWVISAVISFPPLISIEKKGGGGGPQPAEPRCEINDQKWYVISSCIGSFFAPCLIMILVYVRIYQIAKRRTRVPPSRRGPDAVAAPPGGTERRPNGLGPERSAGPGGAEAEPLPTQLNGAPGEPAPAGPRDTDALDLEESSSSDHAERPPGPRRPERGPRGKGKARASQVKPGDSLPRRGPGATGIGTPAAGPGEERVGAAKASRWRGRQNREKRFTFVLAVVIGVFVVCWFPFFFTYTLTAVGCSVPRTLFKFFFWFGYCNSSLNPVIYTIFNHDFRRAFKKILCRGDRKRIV
As to conditions: known value; cited from earlier work.

A further experiment addresses Go (Homo sapiens, UniProt P09471). The note with it: unactivated form, reconstituted vesicle systems (McEwen et al.); cited from earlier work.
Another experiment has as its target Gs (Homo sapiens, UniProt P63092). The note with it: unactivated form, reconstituted vesicle systems (McEwen et al.); cited from earlier work.
For the next experiment, the target named is Gi1 (Homo sapiens, UniProt P63096). As to conditions: unactivated form, reconstituted vesicle systems (McEwen et al.); cited from earlier work.
Gi1, sequence (P63096 whole entry): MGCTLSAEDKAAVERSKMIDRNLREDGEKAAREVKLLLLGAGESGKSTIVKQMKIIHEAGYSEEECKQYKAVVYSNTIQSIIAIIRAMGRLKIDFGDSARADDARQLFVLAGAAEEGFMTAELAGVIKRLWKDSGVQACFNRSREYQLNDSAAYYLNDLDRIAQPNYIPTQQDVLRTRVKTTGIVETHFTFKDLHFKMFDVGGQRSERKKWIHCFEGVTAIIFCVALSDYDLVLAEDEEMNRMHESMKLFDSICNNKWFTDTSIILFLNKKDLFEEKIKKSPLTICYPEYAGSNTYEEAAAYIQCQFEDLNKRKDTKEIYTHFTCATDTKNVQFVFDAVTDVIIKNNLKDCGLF
The next experiment addresses Gi2 (Homo sapiens, UniProt P04899). As to conditions: unactivated form, reconstituted vesicle systems (McEwen et al.); cited from earlier work.

β1, sequence (P08588 whole entry): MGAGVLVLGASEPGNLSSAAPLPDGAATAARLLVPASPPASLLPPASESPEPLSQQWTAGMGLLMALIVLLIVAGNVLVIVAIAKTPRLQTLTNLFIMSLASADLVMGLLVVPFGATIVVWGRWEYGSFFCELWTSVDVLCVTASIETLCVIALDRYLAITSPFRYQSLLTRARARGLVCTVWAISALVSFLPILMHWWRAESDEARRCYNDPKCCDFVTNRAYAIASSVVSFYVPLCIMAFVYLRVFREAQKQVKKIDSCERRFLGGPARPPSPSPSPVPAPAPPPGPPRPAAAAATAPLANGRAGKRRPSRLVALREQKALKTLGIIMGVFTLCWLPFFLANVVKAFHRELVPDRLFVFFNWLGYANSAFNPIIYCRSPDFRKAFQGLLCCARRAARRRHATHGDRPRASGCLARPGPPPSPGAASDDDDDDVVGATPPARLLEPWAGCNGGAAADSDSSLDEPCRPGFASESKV
Gs, sequence (P63092 whole entry): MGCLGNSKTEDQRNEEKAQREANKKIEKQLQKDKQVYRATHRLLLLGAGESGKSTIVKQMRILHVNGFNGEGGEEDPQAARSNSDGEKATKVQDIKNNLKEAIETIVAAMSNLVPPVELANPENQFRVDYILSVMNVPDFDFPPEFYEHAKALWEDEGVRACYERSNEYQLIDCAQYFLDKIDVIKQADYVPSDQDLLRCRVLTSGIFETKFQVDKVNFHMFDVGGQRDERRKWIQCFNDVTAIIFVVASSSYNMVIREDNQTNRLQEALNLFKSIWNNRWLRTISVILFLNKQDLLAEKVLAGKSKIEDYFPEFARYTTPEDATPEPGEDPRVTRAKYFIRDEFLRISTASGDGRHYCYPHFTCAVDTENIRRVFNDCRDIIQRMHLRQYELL
T1 sequence (P30989 whole entry): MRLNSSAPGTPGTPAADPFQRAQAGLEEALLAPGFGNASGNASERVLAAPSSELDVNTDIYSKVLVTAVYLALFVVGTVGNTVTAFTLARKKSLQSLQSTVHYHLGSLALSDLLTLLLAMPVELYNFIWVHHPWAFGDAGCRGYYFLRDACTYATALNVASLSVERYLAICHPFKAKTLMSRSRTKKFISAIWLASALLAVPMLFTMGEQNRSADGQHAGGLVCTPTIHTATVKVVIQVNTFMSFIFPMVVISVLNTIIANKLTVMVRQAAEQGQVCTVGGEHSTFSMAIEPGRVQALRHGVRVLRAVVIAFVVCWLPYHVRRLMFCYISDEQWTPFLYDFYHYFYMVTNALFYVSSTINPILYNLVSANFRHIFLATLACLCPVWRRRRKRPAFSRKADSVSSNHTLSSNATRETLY
Gi2, sequence (P04899 whole entry): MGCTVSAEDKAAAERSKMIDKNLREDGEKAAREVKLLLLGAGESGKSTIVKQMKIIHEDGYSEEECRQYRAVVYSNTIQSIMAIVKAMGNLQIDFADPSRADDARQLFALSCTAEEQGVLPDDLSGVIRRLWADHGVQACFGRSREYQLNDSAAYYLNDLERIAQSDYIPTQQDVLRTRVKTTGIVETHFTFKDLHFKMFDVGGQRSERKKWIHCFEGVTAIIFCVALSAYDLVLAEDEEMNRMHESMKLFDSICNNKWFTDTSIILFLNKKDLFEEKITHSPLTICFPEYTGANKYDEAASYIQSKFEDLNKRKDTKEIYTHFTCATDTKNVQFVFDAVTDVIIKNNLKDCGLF
Go, sequence (P09471 whole entry): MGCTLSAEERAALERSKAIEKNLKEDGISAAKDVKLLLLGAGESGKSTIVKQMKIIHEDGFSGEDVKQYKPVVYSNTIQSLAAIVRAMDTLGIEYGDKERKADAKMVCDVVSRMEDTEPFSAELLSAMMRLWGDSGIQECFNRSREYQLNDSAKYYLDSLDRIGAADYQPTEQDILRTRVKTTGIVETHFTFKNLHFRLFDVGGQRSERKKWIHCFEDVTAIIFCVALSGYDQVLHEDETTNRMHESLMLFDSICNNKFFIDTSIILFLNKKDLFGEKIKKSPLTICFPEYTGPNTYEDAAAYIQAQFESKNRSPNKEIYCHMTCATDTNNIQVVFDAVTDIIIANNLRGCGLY

On to `CC(C)(C)NCC(O)COc1cccc2[nH]c(=O)[nH]c12` (centres unmarked) [CGP12177], for which, in experiment [1], the “effect on intensities of NTR1 spots (inhibition of BT-NT binding)” value is listed as “no significant decrease”.
For the compound `Cc1ccc(OCC(O)C(C)NC(C)C)c2c1CCC2` (centres unmarked) [ICI 118551], the “fluorescence intensity of the β1 receptors” value at β1 (5 nM BODIPY-TMR-CGP12177, 10 nM ICI118551) is “remains almost at the same level”. At β1 (5 nM BODIPY-TMR-CGP12177, 500 nM ICI118551), the “fluorescence intensity of β1” value is “dramatically decreases”. Also, the Ki on α2A was above 10 µM.
In the case of BODIPY-FL-GTPγS, the Kd at Go is 0.006 µM; at Gs it was 0.07 µM; at Gi1, 0.15 µM; at Gi2, 0.3 µM.
